Test results taken from article PMC9630125 (Oncogene, 2022).

Biological target: Misshapen-like kinase 1 (MINK1) (Homo sapiens, UniProt Q8N4C8)
Assay: ADP-Glo kinase assay with recombinant human MINK1, MBP substrate and ATP
Format: biochemical

Sequence of Misshapen-like kinase 1 (MINK1) (Q8N4C8 whole entry): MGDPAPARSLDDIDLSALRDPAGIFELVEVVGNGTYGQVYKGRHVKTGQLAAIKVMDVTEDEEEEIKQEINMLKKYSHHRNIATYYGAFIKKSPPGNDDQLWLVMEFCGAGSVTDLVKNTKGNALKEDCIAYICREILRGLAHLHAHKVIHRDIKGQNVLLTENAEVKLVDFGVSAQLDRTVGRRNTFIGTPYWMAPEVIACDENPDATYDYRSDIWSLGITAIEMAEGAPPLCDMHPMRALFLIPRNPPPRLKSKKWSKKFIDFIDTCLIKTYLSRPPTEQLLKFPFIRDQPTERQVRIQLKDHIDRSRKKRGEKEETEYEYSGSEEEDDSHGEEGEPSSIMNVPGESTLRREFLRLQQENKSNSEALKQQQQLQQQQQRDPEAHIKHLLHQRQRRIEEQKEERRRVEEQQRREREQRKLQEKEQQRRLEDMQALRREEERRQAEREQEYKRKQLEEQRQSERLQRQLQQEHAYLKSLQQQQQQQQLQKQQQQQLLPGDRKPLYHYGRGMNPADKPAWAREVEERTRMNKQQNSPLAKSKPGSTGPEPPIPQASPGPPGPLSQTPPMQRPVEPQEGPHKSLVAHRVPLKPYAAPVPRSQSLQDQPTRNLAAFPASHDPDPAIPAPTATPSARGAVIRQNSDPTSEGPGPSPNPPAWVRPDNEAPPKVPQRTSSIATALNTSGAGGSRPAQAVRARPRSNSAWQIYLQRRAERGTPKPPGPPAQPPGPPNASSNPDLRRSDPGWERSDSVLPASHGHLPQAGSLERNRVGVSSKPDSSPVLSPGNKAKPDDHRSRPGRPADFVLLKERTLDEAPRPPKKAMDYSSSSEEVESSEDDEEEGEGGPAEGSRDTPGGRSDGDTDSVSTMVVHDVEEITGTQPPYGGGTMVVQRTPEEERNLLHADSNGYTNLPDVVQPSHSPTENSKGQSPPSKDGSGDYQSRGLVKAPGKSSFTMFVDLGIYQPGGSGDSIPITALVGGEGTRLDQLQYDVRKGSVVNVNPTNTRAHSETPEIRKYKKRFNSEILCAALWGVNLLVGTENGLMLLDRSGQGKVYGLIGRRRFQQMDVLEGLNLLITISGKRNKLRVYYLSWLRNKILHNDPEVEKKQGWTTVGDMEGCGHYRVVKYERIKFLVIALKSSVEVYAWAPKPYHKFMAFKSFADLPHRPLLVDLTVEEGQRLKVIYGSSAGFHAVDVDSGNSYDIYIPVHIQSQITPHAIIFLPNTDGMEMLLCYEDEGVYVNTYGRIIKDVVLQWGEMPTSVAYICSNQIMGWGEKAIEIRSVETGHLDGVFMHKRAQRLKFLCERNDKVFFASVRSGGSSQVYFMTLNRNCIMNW

Cc1ccc(-n2nc(C(C)(C)C)cc2NC(=O)NCc2cc(F)ccc2Oc2ccc3c(cnn3CCO)c2)cc1 [pexmetinib]
IC50: 10 µM
